Among the test systems are NCI-H460 lung; NCI-H23 lung; RXF 393 renal; HT29 colon; UACC-62 melanoma; HCC-2998 colon; SK-MEL-28 melanoma; M14 melanoma; LOX IMVI melanoma; A549 NSCLC; SR leukemia; MDA-MB-435.
Common to all, as to assay: growth of human tumour cells (NCI), 48 h

These results are taken from PubChem BioAssay (NCI).

Values joined by “and” are separate entries in the source; they are usually repeats but may differ in a detail not shown here. Equal values may be shown once.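 Dose response: 5 concentrations. Exposure: 48 h. Format: 96-well plates. Endpoint: linear interpolation; highest concentration if not reached. GI50 is the concentration that inhibits growth by half. At the TGI there is no net growth.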 Some results are limits rather than exact numbers.

As for `COc1cc2c(cc1O)[C@H](C)C(c1ccc(Cl)cc1)O2` (some centres undefined), the TGI in the assay with NCI-H460 lung was 33.4 µM; in the assay on NCI-H23 lung, 70.8 µM; in the assay with RXF 393 renal, 77.5 µM; with HT29 colon, above 100 µM; with UACC-62 melanoma it was 92.4 µM; in the assay with HCC-2998 colon, 36.1 µM. In addition, the TGI is above 100 µM with SK-MEL-28 melanoma, 55.1 µM in the assay on M14 melanoma, 29.4 µM with LOX IMVI melanoma and 98.6 µM with A549 NSCLC.

Turning to `COC(=O)/C(=C/c1ccc(OC)cc1)C(C(=O)O)=C(C)C`, the TGI with SR leukemia, in the assay with NCI-H460 lung, in the assay with NCI-H23 lung, in the assay on RXF 393 renal, in the assay on HT29 colon and in the assay on UACC-62 melanoma was above 100 µM throughout. For the same compound, the TGI in the assay with HCC-2998 colon, in the assay with SK-MEL-28 melanoma, in the assay with M14 melanoma, with LOX IMVI melanoma and with A549 NSCLC was above 100 µM throughout.

Turning to `O=C(CCN1CCCCC1CCO)Nc1ccc2c(c1)C(=O)c1ccc(NC(=O)CCN3CCCCC3CCO)cc1C2=O` (centres undefined), the TGI with SR leukemia was 29.3 µM; in the assay on NCI-H460 lung, 20.4 µM; in the assay with NCI-H23 lung it was 40.3 µM; in the assay with RXF 393 renal it was 6.46 µM; in the assay on HT29 colon, 20.6 µM; in the assay with UACC-62 melanoma, 13.9 µM. In addition, the TGI is above 100 µM with HCC-2998 colon, 23.5 µM in the assay with SK-MEL-28 melanoma, 13.2 µM with LOX IMVI melanoma and 41.1 µM with A549 NSCLC.

On to `CCCCOC1CC2(c3ccc(OC)cc3)C(=O)c3ccccc3N2O1` (centres undefined), for which the TGI with NCI-H460 lung is above 10 µM; with RXF 393 renal it was 50 µM; in the assay on UACC-62 melanoma, above 10 µM; with M14 melanoma, above 100 µM; with LOX IMVI melanoma it was above 10 µM; in the assay with A549 NSCLC it was above 100 µM.

Turning to `C[N+]1(C)CC=C(N2CCOCC2)CC1`, the TGI in the assay on SR leukemia, in the assay on NCI-H460 lung, in the assay on NCI-H23 lung, in the assay with RXF 393 renal, with HT29 colon and with UACC-62 melanoma was above 10 µM each time. Further, the TGI in the assay with HCC-2998 colon, in the assay on SK-MEL-28 melanoma, in the assay on M14 melanoma, in the assay on LOX IMVI melanoma, in the assay with A549 NSCLC and with MDA-MB-435 was above 10 µM in each case.

With `CC1=C/C(=C(\c2ccc(N(C)C)cc2)c2ccc([N+](C)(C)C)cc2)C=CC1=[N+](C)C`, the TGI with SR leukemia was determined as 4.75 µM; in the assay on NCI-H460 lung, 22.4 µM; in the assay with NCI-H23 lung, 26.6 µM; in the assay with RXF 393 renal, 25.4 µM; in the assay with HT29 colon, 77.9 µM; in the assay on UACC-62 melanoma, 19.3 µM. For the same compound, the TGI in the assay on HCC-2998 colon turned out to be 48.7 µM; in the assay with SK-MEL-28 melanoma, 31.4 µM; with M14 melanoma, 43 µM; in the assay with LOX IMVI melanoma, 17.7 µM; in the assay on A549 NSCLC, 28.9 µM.

With `C=C1CC2CC[C@@]34C[C@@H]5O[C@@H]6C(O[C@H]7CC[C@H](CC(=O)OC8[C@@H](C)C9OC%10C[C@]%11(C[C@@H]%12O[C@@]%13(C[C@@H](C)[C@@H]%12O%11)C[C@H](C)[C@@H]%11OC%12CC(C(O)CO)OC%12C[C@@H]%11O%13)OC%10CC9O[C@H]8C[C@H]8O[C@@H](CC[C@@H]1O2)C[C@@H](C)C8=C)O[C@@H]7[C@@H]6O3)C5O4` (some centres undefined), the GI50 in the assay on NCI-H460 lung, in the assay on NCI-H23 lung, with HT29 colon, in the assay on UACC-62 melanoma, with LOX IMVI melanoma and in the assay with A549 NSCLC was below 0.000148 µM in each case. Besides, the TGI is 0.00317 µM and 0.028 µM in the assay on NCI-H460 lung; 0.0068 µM and 0.00198 µM with NCI-H23 lung; 0.00451 µM in the assay with RXF 393 renal; 0.00784 µM and 0.00321 µM in the assay with HT29 colon; above 1.48 µM with UACC-62 melanoma; 0.00865 µM in the assay with HCC-2998 colon. Also, the TGI in the assay on M14 melanoma is 0.00675 µM; in the assay on LOX IMVI melanoma, 0.394 µM; in the assay with A549 NSCLC, above 1.48 µM.

Regarding `COc1ccc(NC(=S)NN=C(C)c2cccc(C(C)=NNC(=S)Nc3ccc(OC)cc3)n2)cc1`, the TGI in the assay on SR leukemia, in the assay on NCI-H460 lung, with NCI-H23 lung, in the assay with RXF 393 renal, with HT29 colon and in the assay on UACC-62 melanoma was above 100 µM each time. Further, the TGI in the assay on HCC-2998 colon, with SK-MEL-28 melanoma, in the assay on M14 melanoma, with LOX IMVI melanoma, in the assay with A549 NSCLC and in the assay with MDA-MB-435 was above 100 µM throughout.

As for `CC(C)(C)C1CC[C@H]2c3c([nH]c4ccc(Br)cc34)[C@H]3C(=O)N(c4ccccc4)C(=O)[C@H]3[C@H]2C1` (some centres undefined), the TGI with SR leukemia is 12.1 µM; with NCI-H460 lung, 38.9 µM; with NCI-H23 lung it was above 100 µM; in the assay on RXF 393 renal, above 100 µM; with HT29 colon, above 100 µM; in the assay with UACC-62 melanoma, 87.4 µM. The TGI in the assay on HCC-2998 colon, in the assay on SK-MEL-28 melanoma, with M14 melanoma, in the assay with LOX IMVI melanoma and with A549 NSCLC was above 100 µM in each case.

Consider `CCCCCCC1CCC2CCCC(C)N12` (centres undefined), for which the TGI in the assay with SR leukemia is 58.4 µM; with NCI-H460 lung, 59.8 µM; in the assay with NCI-H23 lung, 97.4 µM; in the assay on HT29 colon, above 10 µM; with UACC-62 melanoma, above 100 µM; in the assay on HCC-2998 colon, 45.6 µM. Moreover, the TGI was above 100 µM in the assay with SK-MEL-28 melanoma, 76.9 µM with M14 melanoma and above 100 µM with A549 NSCLC.

`c1cnc2c(c1)-n1cccc1C1(CCOCC1)NN2`: the TGI with SR leukemia, in the assay with NCI-H460 lung, with NCI-H23 lung, in the assay with RXF 393 renal, with HT29 colon and in the assay with HCC-2998 colon was above 100 µM throughout. Moreover, the TGI in the assay with SK-MEL-28 melanoma, in the assay on M14 melanoma and with A549 NSCLC was above 100 µM each time.

For `O=C(/C=C/c1ccc(OCCCCCCCCCCOc2ccc(/C=C/C(=O)c3ccc(Cl)cc3)cc2)cc1)c1ccc(Cl)cc1`, the TGI in the assay with NCI-H460 lung, in the assay with NCI-H23 lung, with RXF 393 renal, in the assay with HT29 colon, in the assay on UACC-62 melanoma and with HCC-2998 colon was above 100 µM each time. Besides, the TGI in the assay on SK-MEL-28 melanoma, in the assay with LOX IMVI melanoma and in the assay on A549 NSCLC was above 100 µM each time.

Turning to `N#Cc1[nH]c(=O)n(-c2ccc([N+](=O)[O-])cc2)c1N`, the TGI with SR leukemia, with NCI-H460 lung, with NCI-H23 lung, with RXF 393 renal, in the assay on HT29 colon and with UACC-62 melanoma was above 10 µM in each case. Further, the TGI with HCC-2998 colon, with SK-MEL-28 melanoma, in the assay on M14 melanoma, in the assay with LOX IMVI melanoma, in the assay with A549 NSCLC and in the assay on MDA-MB-435 was above 10 µM in each case.

Turning to `On1c(-c2ccccc2)c(-c2c(-c3ccccc3)n(O)c3ccccc23)c2ccccc21`, the TGI in the assay on NCI-H460 lung was 49.4 µM; with NCI-H23 lung it was 90.1 µM; with RXF 393 renal, above 100 µM; with HT29 colon, above 100 µM; in the assay on UACC-62 melanoma, above 100 µM; in the assay with SK-MEL-28 melanoma, above 100 µM. The figures for the TGI with LOX IMVI melanoma and in the assay with A549 NSCLC were 73.2 µM and above 100 µM, respectively.

In the case of `O=C(NCCNCCO)N/N=C/c1cccc([N+](=O)[O-])c1`, the TGI with NCI-H460 lung, with NCI-H23 lung, in the assay with RXF 393 renal, in the assay on HT29 colon, in the assay on UACC-62 melanoma and in the assay with SK-MEL-28 melanoma was above 100 µM in each case. The TGI in the assay with M14 melanoma, with LOX IMVI melanoma and with A549 NSCLC was above 100 µM throughout.

As for `COC(=O)OCC1OC(N2C(=O)NC(=O)C(I)C2N=[N+]=[N-])CC1OC(=O)OC` (centres undefined), the TGI in the assay with SR leukemia, in the assay on NCI-H460 lung, with NCI-H23 lung, in the assay on RXF 393 renal, in the assay with HT29 colon and with UACC-62 melanoma was above 100 µM in each case. The TGI in the assay with HCC-2998 colon, with SK-MEL-28 melanoma, in the assay on M14 melanoma, in the assay with LOX IMVI melanoma and in the assay on A549 NSCLC was above 100 µM each time.

On to `[N-]=N[N+]#I1OC(C(F)(F)F)(C(F)(F)F)c2ccccc21`, for which the TGI in the assay with SR leukemia turned out to be 68.3 µM; in the assay with NCI-H23 lung, 36.8 µM; with RXF 393 renal, 30.7 µM; in the assay with HT29 colon, 35.3 µM; in the assay on UACC-62 melanoma, 47.8 µM; in the assay with HCC-2998 colon, 31.8 µM. For the same compound, the TGI in the assay with SK-MEL-28 melanoma is 28.9 µM; in the assay with M14 melanoma, above 100 µM; in the assay with LOX IMVI melanoma it was 77.1 µM; in the assay on A549 NSCLC, 39.2 µM; in the assay with MDA-MB-435 it was 34.2 µM.

`O=C(NC1CCCCC1)c1c(O)[nH]c(=S)[nH]c1=O`: the TGI in the assay on SR leukemia, with NCI-H460 lung, in the assay with NCI-H23 lung, in the assay on HT29 colon, in the assay on UACC-62 melanoma and in the assay on SK-MEL-28 melanoma was above 100 µM each time. In addition, the TGI in the assay on M14 melanoma, in the assay with LOX IMVI melanoma and with A549 NSCLC was above 100 µM each time.

For the compound `Oc1c(Cl)c2nccnc2c2ccccc12`, the TGI in the assay with NCI-H460 lung, with NCI-H23 lung, with RXF 393 renal, in the assay with HT29 colon, in the assay on UACC-62 melanoma and with HCC-2998 colon was above 100 µM each time. Moreover, the TGI in the assay with SK-MEL-28 melanoma, in the assay with M14 melanoma and in the assay with A549 NSCLC was above 100 µM each time.
